This is an account of results in patent publication US20250163047A1, “HETEROCYCLIC COMPOUNDS, COMPOSITIONS THEREOF, AND METHODS OF TREATMENT THEREWITH” (BeiGene, Ltd., priority 2022, published 2025).

For one assay, the target named is T1, Cbl-b (aa36-427) (Homo sapiens, UniProt Q13191).
T1 construct: Cbl-b (aa36-427, in-house); made in house
The assay is described as follows: Co-expressed Cbl-b with BirA biochemical assay (CBLB/E2-Ub binding, HTRF). The following applies: 0.6 nM Cbl-b co-expressed with BirA, HTRF; read-out: co-express CBLB/E2-Ub-binding assay IC50. From the text: (§1) The assay in the absence of a Cbl-b/Cbl inhibitor, where phosphorylation of Cbl-b/Cbl by the Src kinase allows UbcH5B-Ub to bind to Cbl-b/Cbl and brings the Bodipy-Fluorescein tagged ubiquitin in proximity to the streptavidin-terbium bound to the N-terminal biotinylated Avi-tagged Cbl-b/Cbl. […] The lack of a FRET signal indicates Cbl-b/Cbl is inhibited by the Cbl-b/Cbl inhibitor.
For orientation: In TR-FRET formats the signal depends on donor and acceptor labels being close together.

The next assay deals with T2, Cbl (aa49-434) (Homo sapiens, UniProt P22681).
T2 construct: Cbl (aa49-434, in-house); made in house
T2 sequence (P22681 49-434): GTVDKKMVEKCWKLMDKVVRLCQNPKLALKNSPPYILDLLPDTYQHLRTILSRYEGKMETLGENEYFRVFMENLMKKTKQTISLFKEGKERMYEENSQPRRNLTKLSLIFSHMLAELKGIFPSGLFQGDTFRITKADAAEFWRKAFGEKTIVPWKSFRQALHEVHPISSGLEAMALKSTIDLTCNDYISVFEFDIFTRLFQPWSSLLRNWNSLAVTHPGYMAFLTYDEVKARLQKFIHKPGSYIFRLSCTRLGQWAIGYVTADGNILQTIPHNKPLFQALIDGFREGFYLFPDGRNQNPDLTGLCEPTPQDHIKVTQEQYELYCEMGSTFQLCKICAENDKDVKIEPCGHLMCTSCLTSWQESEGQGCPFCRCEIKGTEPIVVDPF
The assay is described as follows: Co-expressed Cbl with BirA biochemical assay (CBL/E2-Ub binding, HTRF). Particulars: 0.6 nM Cbl co-expressed with BirA, read-out: co-express CBL/E2-Ub-binding assay IC50.
Description: as §1

T1 sequence (Q13191 36-427): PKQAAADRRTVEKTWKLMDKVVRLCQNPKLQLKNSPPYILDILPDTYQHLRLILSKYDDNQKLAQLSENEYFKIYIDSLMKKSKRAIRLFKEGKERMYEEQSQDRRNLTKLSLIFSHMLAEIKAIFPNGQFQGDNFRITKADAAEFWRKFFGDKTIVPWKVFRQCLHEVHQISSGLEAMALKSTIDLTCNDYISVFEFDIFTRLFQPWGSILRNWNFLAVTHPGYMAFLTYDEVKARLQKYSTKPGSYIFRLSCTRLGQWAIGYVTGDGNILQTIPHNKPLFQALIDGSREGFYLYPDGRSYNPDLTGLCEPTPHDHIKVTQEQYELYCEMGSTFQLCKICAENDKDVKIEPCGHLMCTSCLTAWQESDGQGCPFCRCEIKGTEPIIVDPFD

Take `C[C@H]1CCCN(Cc2cc(C(=O)Nc3cccc([C@]4(c5nncn5C)C[C@@H](CC#N)C4)c3)nn3cccc23)C1` [Compound B14, 4-{[(3S)-3-methylpiperidin-1-yl]methyl}-N-{3-[(1s, 3s)-3-(cyanomethyl)-1-(4-methyl-1,2,4-triazol-3-yl)cyclobutyl]phenyl}pyrrolo[1,2-b]pyridazine-2-carboxamide]: the IC50 amounted to 13.6 nM at Cbl-b (aa36-427) and 89.9 nM on Cbl (aa49-434).

Take `Cn1cnnc1[C@]1(c2cccc(NC(=O)c3cc(CNCC4CCCC4)cn4c(Cl)cnc34)c2)C[C@H](C)C1` [Compound A68, 3-chloro-6-(((cyclopentylmethyl)amino)methyl)-N-(3-((1s, 3s)-3-methyl-1-(4-methyl-4H-1,2,4-triazol-3-yl)cyclobutyl)phenyl)imidazo[1,2-a]pyridine-8-carboxamide]: the results for the IC50 on Cbl-b (aa36-427) and at Cbl (aa49-434) were 0.9 nM and 2.9 nM, respectively.

With `Cn1cnnc1[C@]1(c2cccc(NC(=O)c3cc(CNCC4(C)CCC4)cn4c(Cl)cnc34)c2)C[C@H](CC#N)C1` [Compound A35, 3-chloro-N-(3-((1s, 3s)-3-(cyanomethyl)-1-(4-methyl-4H-1,2,4-triazol-3-yl)cyclobutyl)phenyl)-6-((((1-methylcyclobutyl)methyl)amino)methyl)imidazo[1,2-a]pyridine-8-carboxamide], the IC50 at Cbl-b (aa36-427) stood at 2.2 nM; at Cbl (aa49-434) it was 13 nM.

For `C[C@@H]1CN(Cc2cc(C(=O)Nc3cccc([C@]4(c5nncn5C)C[C@@H](C)C4)c3)nc3c2CCC3(C)C)CC[C@@H]1F` [Compound C55, 4-(((3R,4S)-4-fluoro-3-methylpiperidin-1-yl)methyl)-7,7-dimethyl-N-(3-((1s,3S)-3-methyl-1-(4-methyl-4H-1,2,4-triazol-3-yl)cyclobutyl)phenyl)-6,7-dihydro-5H-cyclopenta[b]pyridine-2-carboxamide], the IC50 is 1.1 nM on Cbl-b (aa36-427) and 1.9 nM at Cbl (aa49-434).

For `C[C@@H]1CN(Cc2cc(C(=O)Nc3cccc([C@]4(c5nncn5C)C[C@@H](CC#N)C4)c3)nc3c2NCC3(C)C)CC[C@@H]1F` [Compound C47, 7-{[(3R,4S)-4-fluoro-3-methylpiperidin-1-yl]methyl}-3,3-dimethyl-N-{3-[(1s, 3s)-3-(cyanomethyl)-1-(4-methyl-1,2,4-triazol-3-yl)cyclobutyl]phenyl}-1H,2H-pyrrolo[3,2-b]pyridine-5-carboxamide], the IC50 at Cbl-b (aa36-427) worked out at 0.7 nM; on Cbl (aa49-434), 1.2 nM.

On to `C[C@H]1CCCN(Cc2cc(C(=O)Nc3cccc([C@]4(c5nncn5C)C[C@@H](C)C4)c3)c3nc(F)cn3c2)C1` [Compound A8, 2-fluoro-N-(3-((1s,3R)-3-methyl-1-(4-methyl-4H-1,2,4-triazol-3-yl)cyclobutyl)phenyl)-6-(((S)-3-methylpiperidin-1-yl)methyl)imidazo[1,2-a]pyridine-8-carboxamide], for which the figures for the IC50 on Cbl-b (aa36-427) and at Cbl (aa49-434) were 6 nM and 18.7 nM, respectively.

For `Cn1cnnc1CC1(c2cccc(NC(=O)c3cc(CNC4CCCCC4)cn4ccnc34)c2)COC1` [Compound A9, 6-((cyclohexylamino)methyl)-N-(3-(3-((4-methyl-4H-1,2,4-triazol-3-yl)methyl)oxetan-3-yl)phenyl)imidazo[1,2-a]pyridine-8-carboxamide], the IC50 at Cbl-b (aa36-427) was found to be 12.8 nM; at Cbl (aa49-434), 24.3 nM.

Consider `C[C@H]1CCCN(Cc2cc(C(=O)Nc3cccc([C@]4(c5nncn5C)C[C@@H](C)C4)c3)nc3cc[nH]c23)C1` [Compound B4, N-(3-((1s,3R)-3-methyl-1-(4-methyl-4H-1,2,4-triazol-3-yl)cyclobutyl)phenyl)-7-(((S)-3-methylpiperidin-1-yl)methyl)-1H-pyrrolo[3,2-b]pyridine-5-carboxamide], for which the IC50 at Cbl-b (aa36-427) stood at 3 nM; at Cbl (aa49-434), 12 nM.

`Cn1cnnc1[C@]1(c2cncc(NC(=O)c3cc(CNC4(C)CC4)cn4c(Cl)cnc34)c2)C[C@H](C)C1` [Compound A73, 3-chloro-N-(5-((1s, 3s)-3-methyl-1-(4-methyl-4H-1,2,4-triazol-3-yl)cyclobutyl)pyridin-3-yl)-6-(((1-methylcyclopropyl)amino)methyl)imidazo[1,2-a]pyridine-8-carboxamide]: the IC50 on Cbl-b (aa36-427) worked out at 1.2 nM; at Cbl (aa49-434) it was 2.8 nM.

As for `C[C@H](NCc1cc(C(=O)Nc2cccc([C@]3(c4nncn4C)C[C@@H](CC#N)C3)c2)nc2c1CCC2(F)F)C1CC1` [Compound C43, N-(3-((1s,3R)-3-(cyanomethyl)-1-(4-methyl-4H-1,2,4-triazol-3-yl)cyclobutyl)phenyl)-4-((((S)-1-cyclopropylethyl)amino)methyl)-7,7-difluoro-6,7-dihydro-5H-cyclopenta[b]pyridine-2-carboxamide], the IC50 at Cbl-b (aa36-427) is 1.3 nM; at Cbl (aa49-434), 10.1 nM.

With `Cn1cnnc1[C@]1(c2cncc(NC(=O)c3cc(CNC4(C)CCC4)cn4ccnc34)c2)C[C@H](C)C1` [Compound A81, N-(5-((1s, 3s)-3-methyl-1-(4-methyl-4H-1,2,4-triazol-3-yl)cyclobutyl)pyridin-3-yl)-6-(((1-methylcyclobutyl)amino)methyl)imidazo[1,2-a]pyridine-8-carboxamide], the IC50 at Cbl-b (aa36-427) was found to be 1.8 nM; at Cbl (aa49-434) it was 8.2 nM.

Turning to `Cn1cnnc1[C@]1(c2cccc(NC(=O)c3cc(CNC4(C)CC4)cc4c(Cl)cnn34)c2)C[C@H](C)C1` [Compound A96, 3-chloro-N-(3-((1s, 3s)-3-methyl-1-(4-methyl-4H-1,2,4-triazol-3-yl)cyclobutyl)phenyl)-5-(((1-methylcyclopropyl)amino)methyl)pyrazolo[1,5-a]pyridine-7-carboxamide], the IC50 on Cbl-b (aa36-427) was found to be 0.5 nM; on Cbl (aa49-434), 3.2 nM.

In the case of `C[C@H](NCc1cc(C(=O)Nc2cccc([C@]3(c4nncn4C)C[C@@H](C)C3)c2)nc2c1NCC2(C)C)C1CCC1` [Compound C46, 7-({[(1S)-1-cyclobutylethyl]amino}methyl)-3,3-dimethyl-N-{3-[(1r, 3s)-3-methyl-1-(4-methyl-1,2,4-triazol-3-yl)cyclobutyl]phenyl}-1H,2H-pyrrolo[3,2-b]pyridine-5-carboxamide], the IC50 at Cbl-b (aa36-427) stood at 0.7 nM; on Cbl (aa49-434), 1.8 nM.

As for `Cn1cnnc1[C@]1(c2cccc(NC(=O)c3cc(CNCC4CCC4)cn4c(Cl)cnc34)c2)C[C@H](C)C1` [Compound A57, 3-chloro-6-(((cyclobutylmethyl)amino)methyl)-N-(3-((1s, 3s)-3-methyl-1-(4-methyl-4H-1,2,4-triazol-3-yl)cyclobutyl)phenyl)imidazo[1,2-a]pyridine-8-carboxamide], the IC50 worked out at 0.6 nM on Cbl-b (aa36-427) and 1.8 nM on Cbl (aa49-434).

Turning to `Cc1c[nH]c2c(CN3CC[C@H](F)[C@H](C)C3)cc(C(=O)Nc3cccc([C@]4(c5nncn5C)C[C@@H](C)C4)c3)nc12` [Compound B34, 7-(((3R,4S)-4-fluoro-3-methylpiperidin-1-yl)methyl)-3-methyl-N-(3-((1s,3S)-3-methyl-1-(4-methyl-4H-1,2,4-triazol-3-yl)cyclobutyl)phenyl)-1H-pyrrolo[3,2-b]pyridine-5-carboxamide], the IC50 was 1.6 nM on Cbl-b (aa36-427) and 5.5 nM on Cbl (aa49-434).

With `Cn1cnnc1[C@]1(c2cccc(NC(=O)c3cc(CNCC4(C)CCCC4)cn4ccnc34)c2)C[C@H](CC#N)C1` [Compound A15, N-(3-((1s, 3s)-3-(cyanomethyl)-1-(4-methyl-4H-1,2,4-triazol-3-yl)cyclobutyl)phenyl)-6-((((1-methylcyclopentyl)methyl)amino)methyl)imidazo[1,2-a]pyridine-8-carboxamide], the IC50 at Cbl-b (aa36-427) stood at 0.9 nM; at Cbl (aa49-434) it was 4 nM.

As to `C[C@H](NCc1cc(C(=O)Nc2cncc([C@]3(c4nncn4C)C[C@@H](C)C3)c2)c2ncc(Cl)n2c1)C1CC1` [Compound A77, 3-chloro-6-((((S)-1-cyclopropylethyl)amino)methyl)-N-(5-((1s,3R)-3-methyl-1-(4-methyl-4H-1,2,4-triazol-3-yl)cyclobutyl)pyridin-3-yl)imidazo[1,2-a]pyridine-8-carboxamide], the IC50 on Cbl-b (aa36-427) was 0.4 nM; on Cbl (aa49-434), 1.2 nM.

For `C[C@H](NCc1cc(C(=O)Nc2cccc([C@]3(c4nncn4C)C[C@@H](C)C3)c2)c2nccn2c1)C1CCC1` [Compound A70, 6-((((S)-1-cyclobutylethyl)amino)methyl)-N-(3-((1s,3R)-3-methyl-1-(4-methyl-4H-1,2,4-triazol-3-yl)cyclobutyl)phenyl)imidazo[1,2-a]pyridine-8-carboxamide], the IC50 turned out to be 1.1 nM at Cbl-b (aa36-427) and 4.1 nM at Cbl (aa49-434).

For the compound `Cn1cnnc1[C@]1(c2cccc(NC(=O)c3cc(CNCC4CCCC4)c4c(n3)C(C)(C)CO4)c2)C[C@H](C)C1` [Compound C33, 7-(((cyclopentylmethyl)amino)methyl)-3,3-dimethyl-N-(3-((1s, 3s)-3-methyl-1-(4-methyl-4H-1,2,4-triazol-3-yl)cyclobutyl)phenyl)-2,3-dihydrofuro[3,2-b]pyridine-5-carboxamide], the values for the IC50 on Cbl-b (aa36-427) and on Cbl (aa49-434) were 11.4 nM and 46.7 nM, respectively.
